In one assay the target is T1, CYP51Tb (Trypanosoma brucei brucei, UniProt Q385E8, L2A).
T1 construct: His8 (C); made in house; host or cells: E. coli HMS174(DE3) co-transformed with pGro7 (GroES/GroEL)
Nature of the assay: biochemical. In kind it is binding. The following applies: spectral titration, room temperature, pH 7.5.

A further assay deals with T2, CYP51Tc (Trypanosoma cruzi, UniProt Q7Z1V1).
T2 construct: His6 (C); made in house; host or cells: Escherichia coli HMS174(DE3)
Nature of the assay: biochemical. In kind it is binding.

Assay [1] has as its system T. cruzi intracellular amastigotes. Nature of the assay: IC50: T. cruzi intracellular amastigotes in J774 macrophages, parasites/cell. In kind it is cell-based, Trypanosoma cruzi. To be noted: 52 h; for mean number of parasites/cell: untreated 3.57±0.5 P/cell. How it is done:
To determine IC50, mouse J774 macrophages were irradiated (1000 rads) to deter growth and plated onto 12-well tissue culture plates. Cells were infected with 10^5 tissue culture trypomastigotes of the Y strain of T. cruzi for 2 h at 37°C, as described above. […] All treatments were performed in triplicate to ensure statistical validity. Cultures were then fixed in 4% paraformaldehyde in PBS for 2 h at room temperature and stained with DAPI (10 nM) in PBS. One hundred cells and their intracellular parasites were quantified as previously described to estimate the mean number of parasites/cell. Mean P/cell data were plotted against compound concentration to estimate the IC50.

The next assay relates to T. brucei. Nature of the assay: T. brucei assay, viability by ATP-bioluminescence (CellTiter-Glo). In kind it is cell-based, Trypanosoma brucei. The following applies: highest tested concentration 10 µM, 48 h. How it is done:
Trypanosomes were grown in complete HMI-9 medium containing 10% FBS, 10% Serum Plus medium (Sigma Inc. St. Louis Mo. USA) and 1× penicillin/streptomycin. Trypanosomes were diluted to 1.0×10^5/ml in complete HMI-9 medium. Diluted trypanosomes were aliquoted in Greiner sterile 96-well flat white opaque culture plates using a WellMate cell dispenser (Matrix Tech., Hudson, NH, USA). Compounds 8 and 10 were serially diluted in Me2SO. Trypanosomes were incubated with the compounds for 48 h at 37°C with 5% CO2 before monitoring viability. Trypanosomes were then lysed in the wells by adding 50 µl of CellTiter-GloTM (Promega Inc., Madison, WI, USA). Lysed trypanosomes were placed on an orbital shaker at room temperature for 2 min. The resulting ATP-bioluminescence of the trypanosomes in the 96-well plates was measured at room temperature using an Analyst HT plate reader (Molecular Devices, Sunnyvale, CA, USA).
On the technique in general: ATP-based viability assays read luminescence as a measure of living cells.

For assay [2], the system named is T. cruzi Y strain trypomastigotes. Nature of the assay: T. cruzi assay: infection of J774 mouse macrophages, long-term treatment and cure. In kind it is cell-based, Trypanosoma cruzi. The following applies: 10 µM, infected J774 macrophages, treatment up to 27 days then 13–15 days without inhibitor. How it is done: Irradiated (1000 rads) J774 mouse macrophages were plated in 12-well tissue culture plates 24 h prior to infection with 10^5 T. cruzi Y strain trypomastigotes for 2 h at 37°C. […] Untreated controls, controls treated with the inhibitor K11777 (10 µM),[31], and uninfected macrophage controls were also included. All cultures were in triplicate and medium was replaced every 48 h. Treatment with CYP51 inhibitors continued for up to 27 days. Subsequently, treated cultures were maintained without inhibitor for an additional 13–15 days to confirm inhibitor effectiveness and cure of infected cells. Cultures were monitored daily by contrast phase microscopy to determine presence of T. cruzi infected cells and free infectious trypomastigotes (Table 2).

Setting [3] is: spectral titration, room temperature, pH 7.5, read-out: KD, μM CYP51Tc.

Like-named read-outs stand apart in the source and are kept apart here. Where only a bound is given, the exact number is not on record here.

T2 sequence (Q7Z1V1 21-481, looked up, natural form): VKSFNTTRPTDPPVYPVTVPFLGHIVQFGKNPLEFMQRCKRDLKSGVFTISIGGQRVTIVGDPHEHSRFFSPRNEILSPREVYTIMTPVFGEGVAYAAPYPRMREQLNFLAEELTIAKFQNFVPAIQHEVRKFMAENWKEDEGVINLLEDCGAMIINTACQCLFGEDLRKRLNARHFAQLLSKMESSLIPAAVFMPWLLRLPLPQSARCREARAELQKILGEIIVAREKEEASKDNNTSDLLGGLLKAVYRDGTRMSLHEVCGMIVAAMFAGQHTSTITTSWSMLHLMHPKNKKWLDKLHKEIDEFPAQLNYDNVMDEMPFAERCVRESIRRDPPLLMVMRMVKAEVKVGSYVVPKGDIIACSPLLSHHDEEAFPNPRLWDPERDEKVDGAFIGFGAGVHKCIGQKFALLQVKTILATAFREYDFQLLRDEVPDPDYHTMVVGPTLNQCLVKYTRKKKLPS
T1 sequence (Q385E8 whole entry L2A): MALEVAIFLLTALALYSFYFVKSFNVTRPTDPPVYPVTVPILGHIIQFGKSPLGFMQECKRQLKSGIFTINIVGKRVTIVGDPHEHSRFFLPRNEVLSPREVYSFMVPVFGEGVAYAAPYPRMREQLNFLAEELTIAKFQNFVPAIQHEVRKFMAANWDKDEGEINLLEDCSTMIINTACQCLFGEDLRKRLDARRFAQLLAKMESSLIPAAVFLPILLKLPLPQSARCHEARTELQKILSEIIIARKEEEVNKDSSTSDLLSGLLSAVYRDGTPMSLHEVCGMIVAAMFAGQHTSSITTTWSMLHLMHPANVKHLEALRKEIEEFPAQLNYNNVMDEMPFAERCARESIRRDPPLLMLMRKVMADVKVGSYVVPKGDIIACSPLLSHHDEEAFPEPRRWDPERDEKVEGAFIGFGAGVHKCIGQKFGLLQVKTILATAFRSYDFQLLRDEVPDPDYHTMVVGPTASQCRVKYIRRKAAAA

A word on the Kd: it is the concentration at which binding is half-saturated. With `Cn1c(=O)c2c(ncn2CC(=O)Nc2ccncc2)n(C)c1=O` [Compound 7], the Kd is above 100 µM on CYP51Tb and 20.7 ± 0.8 µM at CYP51Tc (setting [3]).
As to `CSCC[C@H](NC(=O)[C@H]1CC[C@@H](C)CC1)C(=O)Nc1ccncc1` [Compound 9, cis-4-methyl-N-[(1S)-3-(methylsulfanyl)-1-(pyridin-4-ylcarbamoyl)propyl]cyclohexanecarboxamide], at CYP51Tb, the Kd came out at 6.5 ± 0.6 µM.
What is called inhibition is how much of the control response was suppressed. The IC50 is the point on the concentration scale where inhibition reaches its midpoint. `CC1CCC(C(=O)NC(Cc2c[nH]c3ccccc23)C(=O)Nc2ccncc2)CC1` (centres unmarked) [Compound 10]: the “KD, μM CYP51Tb” value on CYP51Tb is listed as “no binding”. In assay [1] (10 µM), the “mean number of parasites/cell” value came out at 0.25±0.01 P/cell. Besides, the inhibition at 10 µM in assay [1] (Trypanosoma cruzi, 10 µM, read-out: growth inhibition) amounted to 100%. For the same molecule, in assay [1] (Trypanosoma cruzi, Y strain, read-out: IC50 for T. cruzi intracellular growth inhibition), the IC50 is around 1 nM. Moreover, the “inhibitory effects against cultured T. brucei” value with T. brucei is “neither compound 8 nor 10 had any inhibitory effects”; with T. brucei (listed as compound 10) it was “inactive”. This molecule also gave a Host cell survival in assay [2] of 40 days. Further, the results for the T. cruzi development result in assay [2] and in assay [2] (listed as compound 10) were “No” and “No parasites survived”, respectively.
Take `Cc1ccc(S(=O)(=O)NCCCOC(=O)Nc2ccncc2)cc1` [Compound 8, 3-{[(4-methylphenyl)sulfonyl]amino}propylpyridin-4-ylcarbamate]: the “KD, μM CYP51Tb” value at CYP51Tb is “no binding”. The Kd at CYP51Tc (KD (affinity toward CYP51Tc), spectral assays) came to 0.16 µM. The molecule further yielded a dissociation constant Kd on CYP51Tc (KD, μM CYP51Tc, spectral titration, room temperature, pH 7.5) of 0.16 ± 0.03 µM. The “mean number of parasites/cell” value in assay [1] (10 µM) is 1.22±0.1 P/cell. Further, the “inhibitory effects against cultured T. brucei” value in the assay with T. brucei is given as “neither compound 8 nor 10 had any inhibitory effects”. In assay [2], this molecule displayed a Host cell survival of 5 days and a T. cruzi development of 5 days.
Consider `CCC(C(=O)Nc1ccncc1)c1ccccc1` (stereo not drawn) [EBPA, α-ethyl-N-4-pyridinyl-benzeneacetamide, reference compound], for which the Kd on CYP51Tc (setting [3]) turned out to be 0.48 ± 0.08 µM.

The values are drawn from article PMC2629123, “Trypanosoma cruzi CYP51 Inhibitor Derived from a Mycobacterium tuberculosis Screen Hit” (PLoS Neglected Tropical Diseases, 2009).
